Data taken from patent publication US12624017B2, “Salt form of isoquinolinone type compound as rock inhibitor and preparation method therefor” (GUANGZHOU OCUSUN OPHTHALMIC BIOTECHNOLOGY CO., LTD., priority 2020, dated 2026).

Assays:
Format in all cases: in vivo, New Zealand white rabbits
[1] = test system: New Zealand rabbits suffered with acute intraocular hypertension; test: Intraocular pressure reduction test in acute intraocular hypertension model; conditions: for Intraocular pressure in left eye: left eye (solvent only); for Intraocular pressure in right eye: 50 μL, right eye (modelled, dosed)
Source text: Acute intraocular hypertension was induced for rabbits by injection of a viscoelastic agent into the anterior chamber, and the effects of ocular pressure reduction of the compound of formula (I) were inspected by administration of eye drops at different concentrations.
Male New Zealand white rabbits, aged 97 to 127 days, weighted 2.5 to 3.4 kg, purchased from Pizhou Oriental Breeding Co., Ltd.
50 male New Zealand white rabbits were randomly divided into 5 groups according to body weight, 10 rabbits/group. The anterior chambers of the right eyes of animals in Groups 1 to 5 were injected with medical sodium hyaluronate gel in a single dose, 100 μL/eye, to induce ocular hypertension in the animals. In 5 to 15 min after molding, the right eye was administrated dropwise with the solvent, K-115, and the test article (compounds of formula (I) of different concentrations), and the left eye was administrated dropwise with the solvent, 50 μL/eye; and the intraocular pressures of the animals in both eyes were measured before administration, as well as at 2, 4, 6, 8, and 10 h after administration, respectively.

[2] = test system: New Zealand rabbits with normal intraocular pressure; test: Intraocular pressure reduction, normal intraocular pressure, Day 1 (Operation II); conditions: for Average intraocular pressure in both eyes: Day 1
Source text: An intraocular pressure reduction effect and potential ocular toxicity of the compound of formula (I) were inspected with rabbits with normal intraocular pressure by repeated administration of eye drops for 14 days.
Male New Zealand white rabbits, aged 97 to 127 days, weighted 2.6-3.5 kg, purchased from Pizhou Oriental Breeding Co., Ltd.
(§1) 42 male New Zealand white rabbits were randomly grouped into 7 groups according to body weights, 6 rabbits/group. Among the animals in Groups 1-7, the left eye was administrated dropwise with normal saline, and the right eye was administrated dropwise with a solvent/control/test article in an administration volume of 50 μL/eye respectively, once a day for 14 consecutive days, and the day of first administration was recorded as Day 1. The intraocular pressures of the animals were measured before administration on Day 1, as well as at 1 h, 2 h, 4 h, 6 h, 8 h and 10 h after administration on Day 1 (Table 10).

[3] = test system: New Zealand rabbits with normal intraocular pressure; test: Eye irritation response detection with hand-held slit lamp, 14 days eye drops; conditions: 0.25 to 4 mg/mL; 14 consecutive days; 50 μl/eye/day
Procedure: as §1
Animals were subjected to eye irritation response detection and fluorescein sodium detection (scored according to scoring criteria) in both eyes with a hand-held slit lamp before the start of test (Day −2/Day −1), before daily administration (Day 1 to Day 14), and at 1 h, 2 h, 4 h, 24 h, 48 h, and 72 h after the last administration (Day 14).
Animals were subjected to eye irritation response detection in both eyes with a handheld slit lamp on Day −2 to Day −1 before the start of test, before first administration every day (Day 1 to Day 14), and at 1 h, 2 h, 4 h, 24 h, 48 h, and 72 h after the last administration. The scoring criteria were as follows: […]

## Cc1ccc(C(=O)OCn2cc(C)c3c(S(=O)(=O)N4CC[C@H](N)C4)cccc3c2=O)c(C)c1 [Compound of formula (I)]
[1]; 0.25 mg/mL group, 2 h after administration
  Intraocular pressure in left eye: 6.07 mmHg
[1]; 0.25 mg/mL group, 4 h after administration
  Intraocular pressure in left eye: 6.60 mmHg
[1]; 0.25 mg/mL group, 6 h after administration
  Intraocular pressure in left eye: 9.10 mmHg
[1]; 0.25 mg/mL group, 8 h after administration
  Intraocular pressure in left eye: 11.50 mmHg
[1]; 0.25 mg/mL group, 10 h after administration
  Intraocular pressure in left eye: 12.43 mmHg
[1]; 0.25 mg/mL group, before administration
  Intraocular pressure in left eye: 10.53 mmHg
[1]; 0.25 mg/mL, 2 h after administration
  Intraocular pressure in right eye: 8.47 mmHg
[1]; 0.25 mg/mL, 4 h after administration
  Intraocular pressure in right eye: 8.60 mmHg
[1]; 0.25 mg/mL, 6 h after administration
  Intraocular pressure in right eye: 11.20 mmHg
[1]; 0.25 mg/mL, 8 h after administration
  Intraocular pressure in right eye: 13.37 mmHg
[1]; 0.25 mg/mL, 10 h after administration
  Intraocular pressure in right eye: 13.10 mmHg
[1]; 0.25 mg/mL, before administration
  Intraocular pressure in right eye: 11.43 mmHg
[1]; 2.0 mg/mL group, 2 h after administration
  Intraocular pressure in left eye: 6.60 mmHg
[1]; 2.0 mg/mL group, 4 h after administration
  Intraocular pressure in left eye: 7.04 mmHg
[1]; 2.0 mg/mL group, 6 h after administration
  Intraocular pressure in left eye: 11.23 mmHg
[1]; 2.0 mg/mL group, 8 h after administration
  Intraocular pressure in left eye: 12.84 mmHg
[1]; 2.0 mg/mL group, 10 h after administration
  Intraocular pressure in left eye: 13.10 mmHg
[1]; 2.0 mg/mL group, before administration
  Intraocular pressure in left eye: 11.27 mmHg
[1]; 2.0 mg/mL, 2 h after administration
  Intraocular pressure in right eye: 8.52 mmHg
[1]; 2.0 mg/mL, 4 h after administration
  Intraocular pressure in right eye: 11.56 mmHg
[1]; 2.0 mg/mL, 6 h after administration
  Intraocular pressure in right eye: 13.81 mmHg
[1]; 2.0 mg/mL, 8 h after administration
  Intraocular pressure in right eye: 12.96 mmHg
[1]; 2.0 mg/mL, 10 h after administration
  Intraocular pressure in right eye: 11.96 mmHg
[1]; 2.0 mg/mL, before administration
  Intraocular pressure in right eye: 11.23 mmHg
[1]; 8.0 mg/mL group, 2 h after administration
  Intraocular pressure in left eye: 5.93 mmHg
[1]; 8.0 mg/mL group, 4 h after administration
  Intraocular pressure in left eye: 6.43 mmHg
[1]; 8.0 mg/mL group, 6 h after administration
  Intraocular pressure in left eye: 10.10 mmHg
[1]; 8.0 mg/mL group, 8 h after administration
  Intraocular pressure in left eye: 11.87 mmHg
[1]; 8.0 mg/mL group, 10 h after administration
  Intraocular pressure in left eye: 13.19 mmHg
[1]; 8.0 mg/mL group, before administration
  Intraocular pressure in left eye: 11.20 mmHg
[1]; 8.0 mg/mL, 2 h after administration
  Intraocular pressure in right eye: 7.40 mmHg
[1]; 8.0 mg/mL, 4 h after administration
  Intraocular pressure in right eye: 7.97 mmHg
[1]; 8.0 mg/mL, 6 h after administration
  Intraocular pressure in right eye: 8.84 mmHg
[1]; 8.0 mg/mL, 8 h after administration
  Intraocular pressure in right eye: 8.60 mmHg
[1]; 8.0 mg/mL, 10 h after administration
  Intraocular pressure in right eye: 8.78 mmHg
[1]; 8.0 mg/mL, before administration
  Intraocular pressure in right eye: 11.53 mmHg
[1]; at different test doses (0.25, 2.0, 8.0 mg/mL), amplitude and sustained effect better than K-115
  Intraocular pressure reduction effect (conclusion): good intraocular pressure reduction effects
[2]; 0.25 mg/mL in right eye, 1 h after administration
  Average intraocular pressure in both eyes: 6.22 mmHg
[2]; 0.25 mg/mL in right eye, 2 h after administration
  Average intraocular pressure in both eyes: 6.17 mmHg
[2]; 0.25 mg/mL in right eye, 4 h after administration
  Average intraocular pressure in both eyes: 6.67 mmHg
[2]; 0.25 mg/mL in right eye, 6 h after administration
  Average intraocular pressure in both eyes: 8.06 mmHg
[2]; 0.25 mg/mL in right eye, 8 h after administration
  Average intraocular pressure in both eyes: 9.72 mmHg
[2]; 0.25 mg/mL in right eye, 10 h after administration
  Average intraocular pressure in both eyes: 10.95 mmHg
[2]; 0.25 mg/mL in right eye, before administration
  Average intraocular pressure in both eyes: 9.84 mmHg
[2]; 0.5 mg/mL in right eye, 1 h after administration
  Average intraocular pressure in both eyes: 5.39 mmHg
[2]; 0.5 mg/mL in right eye, 2 h after administration
  Average intraocular pressure in both eyes: 5.50 mmHg
[2]; 0.5 mg/mL in right eye, 4 h after administration
  Average intraocular pressure in both eyes: 6.95 mmHg
[2]; 0.5 mg/mL in right eye, 6 h after administration
  Average intraocular pressure in both eyes: 8.94 mmHg
[2]; 0.5 mg/mL in right eye, 8 h after administration
  Average intraocular pressure in both eyes: 9.89 mmHg
[2]; 0.5 mg/mL in right eye, 10 h after administration
  Average intraocular pressure in both eyes: 11.56 mmHg
[2]; 0.5 mg/mL in right eye, before administration
  Average intraocular pressure in both eyes: 9.22 mmHg
[2]; 1.0 mg/mL in right eye, 1 h after administration
  Average intraocular pressure in both eyes: 5.56 mmHg
[2]; 1.0 mg/mL in right eye, 2 h after administration
  Average intraocular pressure in both eyes: 5.39 mmHg
[2]; 1.0 mg/mL in right eye, 4 h after administration
  Average intraocular pressure in both eyes: 6.67 mmHg
[2]; 1.0 mg/mL in right eye, 6 h after administration
  Average intraocular pressure in both eyes: 7.33 mmHg
[2]; 1.0 mg/mL in right eye, 8 h after administration
  Average intraocular pressure in both eyes: 10.50 mmHg
[2]; 1.0 mg/mL in right eye, 10 h after administration
  Average intraocular pressure in both eyes: 10.89 mmHg
[2]; 1.0 mg/mL in right eye, before administration
  Average intraocular pressure in both eyes: 9.17 mmHg
[2]; 2.0 mg/mL in right eye, 1 h after administration
  Average intraocular pressure in both eyes: 8.11 mmHg
[2]; 2.0 mg/mL in right eye, 2 h after administration
  Average intraocular pressure in both eyes: 5.84 mmHg
[2]; 2.0 mg/mL in right eye, 4 h after administration
  Average intraocular pressure in both eyes: 6.06 mmHg
[2]; 2.0 mg/mL in right eye, 6 h after administration
  Average intraocular pressure in both eyes: 7.11 mmHg
[2]; 2.0 mg/mL in right eye, 8 h after administration
  Average intraocular pressure in both eyes: 9.00 mmHg
[2]; 2.0 mg/mL in right eye, 10 h after administration
  Average intraocular pressure in both eyes: 10.05 mmHg
[2]; 2.0 mg/mL in right eye, before administration
  Average intraocular pressure in both eyes: 9.72 mmHg
[2]; 4.0 mg/mL in right eye, 1 h after administration
  Average intraocular pressure in both eyes: 6.61 mmHg
[2]; 4.0 mg/mL in right eye, 2 h after administration
  Average intraocular pressure in both eyes: 5.84 mmHg
[2]; 4.0 mg/mL in right eye, 4 h after administration
  Average intraocular pressure in both eyes: 5.72 mmHg
[2]; 4.0 mg/mL in right eye, 6 h after administration
  Average intraocular pressure in both eyes: 6.61 mmHg
[2]; 4.0 mg/mL in right eye, 8 h after administration
  Average intraocular pressure in both eyes: 8.39 mmHg
[2]; 4.0 mg/mL in right eye, 10 h after administration
  Average intraocular pressure in both eyes: 10.67 mmHg
[2]; 4.0 mg/mL in right eye, before administration
  Average intraocular pressure in both eyes: 10.00 mmHg
[2]; all tested doses (0.25 to 4.0 mg/mL), compared with K-115
  Efficacy of single administration (conclusion): better efficacy
[3]
  Eye irritation (conclusion): no irritation
